# Reference: patent US20250136578A1 (Kolm Therapeutics Inc., priority 2023, published 2025)
# Tests used:
# AR / CBP ternary complex = AR / CBP ternary complex (Homo sapiens, UniProt P10275+Q92793); assay: Ternary complex formation assay (sandwich ELISA, AR capture, CBP antibody detection) in VCaP cell lysates; format: cell-based; settings: treated 1.5 hours, rabbit CBP or p300 antibody detection, average, read-out: Average Ternary Complex
# How it was run: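 Sandwich ELISA: plates were coated with anti-AR antibody (AR441) and given lysates of VCaP cells treated 1.5 h with bifunctional compound in charcoal-stripped serum. Co-captured CBP or p300 was probed with rabbit mAbs and HRP secondary. Chemifluorescent signal (ex 570/em 585) was read at 0, 5 and 15 min.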
# VCaP cells = assay: VCaP growth inhibition assay (CTG); format: cell-based; settings: Homo sapiens, 216 h, 30 pM R1881, 9 days
# How it was run: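 Growth was measured by CTG luminescence after a 9-day exposure of VCaP cells to compound (final 10 fM–100 nM, fivefold steps) in the presence of 30 pM final R1881, in phenol red-free DMEM/5% CSS. IC50 values were derived by nonlinear 4-parameter regression of RLU against concentration.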
# AR / CBP ternary complex, sequence (P10275 whole entry): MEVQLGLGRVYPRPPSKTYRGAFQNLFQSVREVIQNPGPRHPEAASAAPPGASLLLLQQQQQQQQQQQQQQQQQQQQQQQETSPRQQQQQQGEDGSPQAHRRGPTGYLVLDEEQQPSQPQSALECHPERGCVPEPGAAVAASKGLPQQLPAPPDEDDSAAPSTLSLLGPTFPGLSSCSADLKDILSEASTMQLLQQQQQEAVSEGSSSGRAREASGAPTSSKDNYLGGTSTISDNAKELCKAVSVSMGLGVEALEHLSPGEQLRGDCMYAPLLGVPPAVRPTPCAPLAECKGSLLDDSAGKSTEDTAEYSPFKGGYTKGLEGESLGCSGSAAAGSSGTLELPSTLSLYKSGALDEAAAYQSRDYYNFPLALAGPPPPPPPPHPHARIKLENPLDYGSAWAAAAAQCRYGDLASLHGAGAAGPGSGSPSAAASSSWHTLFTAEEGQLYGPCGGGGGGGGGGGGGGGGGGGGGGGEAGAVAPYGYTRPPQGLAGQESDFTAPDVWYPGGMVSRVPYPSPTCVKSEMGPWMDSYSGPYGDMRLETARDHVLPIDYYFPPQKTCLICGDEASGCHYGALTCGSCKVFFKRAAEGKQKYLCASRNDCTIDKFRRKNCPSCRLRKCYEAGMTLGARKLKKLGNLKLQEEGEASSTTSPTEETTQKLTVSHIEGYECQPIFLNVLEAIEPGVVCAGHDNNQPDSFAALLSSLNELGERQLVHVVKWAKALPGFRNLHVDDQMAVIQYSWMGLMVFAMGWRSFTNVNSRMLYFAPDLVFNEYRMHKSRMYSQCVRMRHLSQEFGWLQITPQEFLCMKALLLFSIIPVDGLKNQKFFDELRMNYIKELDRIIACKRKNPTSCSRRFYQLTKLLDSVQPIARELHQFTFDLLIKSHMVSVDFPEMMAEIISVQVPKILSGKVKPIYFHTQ
# AR / CBP ternary complex, sequence (Q92793 2-2442): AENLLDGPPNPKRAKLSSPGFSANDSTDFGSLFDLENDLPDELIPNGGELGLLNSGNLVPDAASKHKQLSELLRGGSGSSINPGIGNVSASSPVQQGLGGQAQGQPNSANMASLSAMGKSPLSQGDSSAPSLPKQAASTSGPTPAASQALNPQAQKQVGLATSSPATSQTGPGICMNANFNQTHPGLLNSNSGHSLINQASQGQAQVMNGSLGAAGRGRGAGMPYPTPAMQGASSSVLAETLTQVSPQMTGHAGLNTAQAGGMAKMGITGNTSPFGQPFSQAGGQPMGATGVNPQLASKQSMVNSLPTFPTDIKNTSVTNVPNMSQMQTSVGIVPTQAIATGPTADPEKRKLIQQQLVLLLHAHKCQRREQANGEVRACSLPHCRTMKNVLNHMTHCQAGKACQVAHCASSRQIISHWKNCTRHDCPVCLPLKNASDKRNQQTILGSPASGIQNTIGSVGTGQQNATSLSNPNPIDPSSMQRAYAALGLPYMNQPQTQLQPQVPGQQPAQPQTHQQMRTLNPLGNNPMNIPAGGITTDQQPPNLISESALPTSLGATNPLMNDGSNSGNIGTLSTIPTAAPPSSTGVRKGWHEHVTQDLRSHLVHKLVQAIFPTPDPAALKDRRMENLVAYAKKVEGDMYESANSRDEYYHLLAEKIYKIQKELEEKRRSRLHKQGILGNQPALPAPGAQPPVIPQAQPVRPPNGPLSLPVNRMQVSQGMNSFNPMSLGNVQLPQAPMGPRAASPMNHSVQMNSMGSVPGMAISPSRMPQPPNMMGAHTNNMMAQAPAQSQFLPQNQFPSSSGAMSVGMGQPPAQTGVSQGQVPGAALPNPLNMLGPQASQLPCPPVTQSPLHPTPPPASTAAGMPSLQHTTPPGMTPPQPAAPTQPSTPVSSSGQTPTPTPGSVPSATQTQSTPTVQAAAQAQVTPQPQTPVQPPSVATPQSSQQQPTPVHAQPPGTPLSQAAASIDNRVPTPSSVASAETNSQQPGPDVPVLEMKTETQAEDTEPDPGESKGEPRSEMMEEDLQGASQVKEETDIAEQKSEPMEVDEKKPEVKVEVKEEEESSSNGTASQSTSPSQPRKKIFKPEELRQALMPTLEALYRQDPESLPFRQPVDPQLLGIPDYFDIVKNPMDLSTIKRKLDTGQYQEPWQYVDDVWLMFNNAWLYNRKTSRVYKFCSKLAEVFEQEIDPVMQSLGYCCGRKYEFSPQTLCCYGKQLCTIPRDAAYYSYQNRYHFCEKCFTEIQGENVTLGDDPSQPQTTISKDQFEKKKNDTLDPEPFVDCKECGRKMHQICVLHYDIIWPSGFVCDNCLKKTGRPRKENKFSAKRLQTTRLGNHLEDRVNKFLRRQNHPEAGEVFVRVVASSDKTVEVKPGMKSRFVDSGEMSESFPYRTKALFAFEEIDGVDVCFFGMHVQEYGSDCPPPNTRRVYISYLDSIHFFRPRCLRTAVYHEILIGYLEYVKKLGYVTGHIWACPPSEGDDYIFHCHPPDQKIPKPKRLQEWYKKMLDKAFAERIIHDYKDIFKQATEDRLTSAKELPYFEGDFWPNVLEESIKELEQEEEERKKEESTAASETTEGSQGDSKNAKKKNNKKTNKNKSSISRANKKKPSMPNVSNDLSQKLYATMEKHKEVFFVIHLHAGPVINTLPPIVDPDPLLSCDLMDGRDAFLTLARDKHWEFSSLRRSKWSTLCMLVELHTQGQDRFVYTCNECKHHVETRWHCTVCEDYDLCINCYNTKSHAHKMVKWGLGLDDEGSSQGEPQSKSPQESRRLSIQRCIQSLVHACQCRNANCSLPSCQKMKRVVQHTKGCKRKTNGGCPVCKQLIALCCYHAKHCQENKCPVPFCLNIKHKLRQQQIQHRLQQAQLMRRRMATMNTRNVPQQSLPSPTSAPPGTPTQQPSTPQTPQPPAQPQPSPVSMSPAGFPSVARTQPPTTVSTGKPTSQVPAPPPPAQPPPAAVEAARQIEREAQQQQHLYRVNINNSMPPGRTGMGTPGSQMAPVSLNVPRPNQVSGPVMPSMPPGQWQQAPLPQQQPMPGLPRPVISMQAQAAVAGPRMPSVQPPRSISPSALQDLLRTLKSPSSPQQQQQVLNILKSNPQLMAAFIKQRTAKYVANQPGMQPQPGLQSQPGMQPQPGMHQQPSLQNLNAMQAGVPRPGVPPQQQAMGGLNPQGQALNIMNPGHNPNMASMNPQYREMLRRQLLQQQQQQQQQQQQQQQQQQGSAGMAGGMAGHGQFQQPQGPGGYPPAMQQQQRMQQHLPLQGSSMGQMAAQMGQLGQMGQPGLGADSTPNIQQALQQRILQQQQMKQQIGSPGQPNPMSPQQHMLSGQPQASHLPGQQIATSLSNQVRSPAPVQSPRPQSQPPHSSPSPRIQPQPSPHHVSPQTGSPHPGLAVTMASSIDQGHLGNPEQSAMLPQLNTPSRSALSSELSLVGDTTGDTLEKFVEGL
Structure (SMILES),EC50 (AR / CBP ternary complex) [nM],IC50 (VCaP cells) [nM]
"C[C@@H]1CC(=O)Nc2cccc(N3CCCc4cc(-c5cnn(CC6CCN(c7ccc(C(=O)N[C@H]8CC[C@H](Oc9ccc(C#N)c(Cl)c9)CC8)nn7)CC6)c5)c(C(F)F)cc43)c2N1 [Compound 34, N-[4-(3-chloro-4-cyano-phenoxy)cyclohexyl]-6-[4-[[4-[7-(difluoromethyl)-1-[(4R)-4-methyl-2-oxo1,3,4,5-tetrahydro-1,5-benzodiazepin-6-yl]-3,4-dihydro-2H-quinolin-6-yl]pyrazol-1-yl]methyl]-1-piperidyl]pyridazine-3-carboxamide]",1 to 10,0.1 to 1
"CC(=O)N1CCc2c(c(-c3cccc4cc(-c5cnn(C)c5)ncc34)nn2C2CCN(CC3CCN(c4ccc(C(=O)N[C@H]5CC[C@H](Oc6ccc(C#N)c(Cl)c6)CC5)cn4)CC3)CC2)C1 [Compound 161, 6-[4-[[4-[5-acetyl-3-[3-(1-methylpyrazol-4-yl)-8-isoquinolyl]-6,7-dihydro-4H-pyrazolo[4,3-c]pyridin-1-yl]-1-piperidyl]methyl]-1-piperidyl]-N-[4-(3-chloro-4-cyano-phenoxy)cyclohexyl]pyridine-3-carboxamide]",< 1,≤ 0.1
"COC(=O)N1c2ccc3c(nc(Cc4ccccc4)n3[C@@H]3CCC[C@H](OCCN4CCN(c5ccc(C(=O)N[C@H]6CC[C@H](Oc7ccc(C#N)c(Cl)c7)CC6)nn5)CC4)C3)c2CC[C@@H]1C [Compound 270, methyl (7S)-2-benzyl-3-[3-[2-[4-[6-[[4-(3-chloro-4-cyano-phenoxy)cyclohexyl]carbamoyl]pyridazin-3-yl]piperazin-1-yl]ethoxy]cyclohexyl]-7-methyl-8,9-dihydro-7H-imidazo[4,5-f]quinoline-6-carboxylate]",1 to 10,1 to 100
"COC(=O)N1c2ccc3c(nc(Cc4ccccc4)n3[C@@H]3CCC[C@H](OC4CCN(c5ccc(C(=O)N[C@H]6CC[C@H](Oc7ccc(C#N)c(Cl)c7)CC6)nn5)CC4)C3)c2CC[C@@H]1C [Compound 244, methyl (7S)-2-benzyl-3-[3-[[1-[6-[[4-(3-chloro-4-cyano-phenoxy)cyclohexyl]carbamoyl]pyridazin-3-yl]-4-piperidyl]oxy]cyclohexyl]-7-methyl-8,9-dihydro-7H-imidazo[4,5-f]quinoline-6-carboxylate]",< 1,0.1 to 1
"CC(=O)N1CCc2c(c(N3CCCc4cc(-c5cnn(C)c5)c(C(F)F)cc43)nn2C2CCN(C3CCC4(CC3)CC(Oc3ccc(C(=O)N[C@H]5CC[C@H](Oc6ccc(C#N)c(Cl)c6)CC5)nn3)C4)CC2)C1 (stereo partly drawn) [Compound 245, 6-[7-[4-[5-acetyl-3-[7-(difluoromethyl)-6-(1-methylpyrazol-4-yl)-3,4-dihydro-2H-quinolin-1-yl]-6,7-dihydro-4H-pyrazolo[4,3-c]pyridin-1-yl]-1-piperidyl]spiro[3.5]nonan-2-yl]oxy-N-[4-(3-chloro-4-cyano-phenoxy)cyclohexyl]pyridazine-3-carboxamide]",< 1,≤ 0.1
"CC(=O)N1CCc2c(c(-c3cccc4cc(-c5cnn(CCC6CCN(c7ccc(C(=O)N[C@H]8CC[C@H](Oc9ccc(C#N)c(Cl)c9)CC8)nn7)CC6)c5)ncc34)nn2[C@H]2CCOC2)C1 [Compound 85, 6-[4-[2-[4-[8-[5-acetyl-1-[(3S)-tetrahydrofuran-3-yl]-6,7-dihydro-4H-pyrazolo[4,3-c]pyridin-3-yl]-3-isoquinolyl]pyrazol-1-yl]ethyl]-1-piperidyl]-N-[4-(3-chloro-4-cyano-phenoxy)cyclohexyl] pyridazine-3-carboxamide]",< 1,≤ 0.1
"CC(=O)N1CCc2c(c(N3CCCc4cc(-c5cnn(C)c5)c(C)cc43)nn2C2CCN(CC3CCN(c4ccc(C(=O)N[C@H]5CC[C@H](Oc6ccc(C#N)c(C)c6C)CC5)nn4)CC3(C)C)CC2)C1 (stereo partly drawn) [Compound 292, 6-[4-[[4-[5-acetyl-3-[7-methyl-6-(1-methylpyrazol-4-yl)-3,4-dihydro-2H-quinolin-1-yl]-6,7-dihydro-4H-pyrazolo[4,3-c]pyridin-1-yl]-1-piperidyl]methyl]-3,3-dimethyl-1-piperidyl]-N-[4-(4-cyano-2,3-dimethyl-phenoxy)cyclohexyl]pyridazine-3-carboxamide]",< 1,≤ 0.1
"CC(=O)N1CCc2c(c(-c3cccc4nc(-c5ccc(CCC6CCN(c7ccc(C(=O)N[C@H]8CC[C@H](Oc9ccc(C#N)c(Cl)c9)CC8)nn7)CC6)nc5)ncc34)nn2C2CCOCC2)C1 [Compound 73, 6-[4-[2-[5-[5-(5-acetyl-1-tetrahydropyran-4-yl-6,7-dihydro-4H-pyrazolo[4,3-c]pyridin-3-yl)quinazolin-2-yl]-2-pyridyl]ethyl]-1-piperidyl]-N-[4-(3-chloro-4-cyano-phenoxy)cyclohexyl]pyridazine-3-carboxamide]",< 1,≤ 0.1

# Other lines, results leading:
EC50 (AR / CBP ternary complex) [nM],IC50 (VCaP cells) [nM],Structure (SMILES)
< 1,0.1 to 1,"CC(=O)N1CCc2c(c(N3CCCc4cc(-c5cnn(C)c5)c(C(F)F)cc43)nn2[C@H]2CC[C@@H](C3CCC4(CC3)CN(c3ccc(C(=O)N[C@H]5CC[C@H](Oc6ccc(C#N)c(Cl)c6)CC5)nn3)C4)CC2)C1 [Compound 242, 6-[7-[4-[5-acetyl-3-[7-(difluoromethyl)-6-(1-methylpyrazol-4-yl)-3,4-dihydro-2H-quinolin-1-yl]-6,7-dihydro-4H-pyrazolo[4,3-c]pyridin-1-yl]cyclohexyl]-2-azaspiro[3.5]nonan-2-yl]-N-[4-(3-chloro-4-cyano-phenoxy)cyclohexyl]pyridazine-3-carboxamide]"
< 1,≤ 0.1,"CC(=O)N1CCc2c(c(N3CCCc4cc(-c5cnn(C)c5)c(C(F)F)cc43)nn2C2CCC3(CC2)CN(C2CCN(c4ccc(C(=O)N[C@H]5CC[C@H](Oc6ccc(C#N)c(Cl)c6)CC5)nn4)CC2)C3)C1 [Compound 238, 6-[4-[7-[5-acetyl-3-[7-(difluoromethyl)-6-(1-methylpyrazol-4-yl)-3,4-dihydro-2H-quinolin-1-yl]-6,7-dihydro-4H-pyrazolo[4,3-c]pyridin-1-yl]-2-azaspiro[3.5]nonan-2-yl]-1-piperidyl]-N-[4-(3-chloro-4-cyano-phenoxy)cyclohexyl]pyridazine-3-carboxamide]"
< 1,≤ 0.1,"CC(=O)N1CCc2c(c(N3CCCc4cc(-c5cnn(C)c5)c(C(F)F)cc43)nn2C2CCN(C3(C)CCN(c4ccc(C(=O)N[C@H]5CC[C@H](Oc6ccc(C#N)c(Cl)c6)CC5)nn4)CC3)CC2)C1 [Compound 201, 6-[4-[4-[5-acetyl-3-[7-(difluoromethyl)-6-(1-methylpyrazol-4-yl)-3,4-dihydro-2H-quinolin-1-yl]-6,7-dihydro-4H-pyrazolo[4,3-c]pyridin-1-yl]-1-piperidyl]-4-methyl-1-piperidyl]-N-[4-(3-chloro-4-cyano-phenoxy)cyclohexyl]pyridazine-3-carboxamide]"
< 1,≤ 0.1,CC(=O)N1CCc2c(c(N3CCCc4cc(-c5cnn(C)c5)c(C(F)F)cc43)nn2C2CCC3(CC2)CN(C2CN(c4ccc(C(=O)N[C@H]5CC[C@H](Oc6ccc(C#N)c(Cl)c6)CC5)nn4)C2)C3)C1 [Compound 237]
